The NIST ThermoML archive (doi:10.1021/acs.jced.6b00455)

Assay: mn = molality of the nth substance listed, in mol/kg
Conditions: 101 kPa, Liquid, Alternating current cell with electrodes

C[N+](C)(C)CCO.O=C([O-])C(F)(F)C(F)(F)C(F)(F)C(F)(F)F [(2-hydroxyethyl)trimethylammonium perfluoropentanoate] + O
Conditions	electrical conductivity [S/m]
293.15 K, m1 = 0.000529	0.0033
293.15 K, m1 = 0.001164	0.0074
293.15 K, m1 = 0.001886	0.012
293.15 K, m1 = 0.002281	0.0144
293.15 K, m1 = 0.002766	0.0174
293.15 K, m1 = 0.003311	0.0207
293.15 K, m1 = 0.003805	0.0236
293.15 K, m1 = 0.004377	0.0271
293.15 K, m1 = 0.004908	0.0302
293.15 K, m1 = 0.005409	0.033
293.15 K, m1 = 0.005979	0.0364
293.15 K, m1 = 0.006697	0.0404
293.15 K, m1 = 0.007467	0.0447
293.15 K, m1 = 0.008082	0.0481
293.15 K, m1 = 0.00858	0.0508
293.15 K, m1 = 0.009905	0.058
293.15 K, m1 = 0.01142	0.066
293.15 K, m1 = 0.0124	0.0711
293.15 K, m1 = 0.01324	0.0753
293.15 K, m1 = 0.01399	0.0792
293.15 K, m1 = 0.01513	0.085
293.15 K, m1 = 0.01598	0.0891
293.15 K, m1 = 0.01695	0.0936
293.15 K, m1 = 0.01789	0.098
293.15 K, m1 = 0.01884	0.102
293.15 K, m1 = 0.01994	0.108
293.15 K, m1 = 0.02076	0.112
293.15 K, m1 = 0.02179	0.116
293.15 K, m1 = 0.02264	0.12
293.15 K, m1 = 0.02348	0.123
293.15 K, m1 = 0.0245	0.128
298.15 K, m1 = 0.00173	0.0127
298.15 K, m1 = 0.003076	0.0222
298.15 K, m1 = 0.004761	0.0337
298.15 K, m1 = 0.006222	0.0434
298.15 K, m1 = 0.007398	0.0509
298.15 K, m1 = 0.008599	0.0589
298.15 K, m1 = 0.01005	0.0687
298.15 K, m1 = 0.01198	0.0799
298.15 K, m1 = 0.01368	0.0892
298.15 K, m1 = 0.01543	0.0996
298.15 K, m1 = 0.01692	0.108
298.15 K, m1 = 0.0184	0.116
298.15 K, m1 = 0.02111	0.131
298.15 K, m1 = 0.02244	0.138
298.15 K, m1 = 0.02415	0.148
298.15 K, m1 = 0.02609	0.158
298.15 K, m1 = 0.02818	0.17
298.15 K, m1 = 0.031	0.183
298.15 K, m1 = 0.03389	0.198
298.15 K, m1 = 0.03746	0.215
298.15 K, m1 = 0.04011	0.228
298.15 K, m1 = 0.04312	0.245
303.15 K, m1 = 0.000602	0.005
303.15 K, m1 = 0.001118	0.0092
303.15 K, m1 = 0.001883	0.0153
303.15 K, m1 = 0.002669	0.0214
303.15 K, m1 = 0.002939	0.0235
303.15 K, m1 = 0.003765	0.0297
303.15 K, m1 = 0.004158	0.0325
303.15 K, m1 = 0.004947	0.0388
303.15 K, m1 = 0.005615	0.0446
303.15 K, m1 = 0.006164	0.0494
303.15 K, m1 = 0.006758	0.0518
303.15 K, m1 = 0.007514	0.0567
303.15 K, m1 = 0.008082	0.0606
303.15 K, m1 = 0.008631	0.0643
303.15 K, m1 = 0.009197	0.0673
303.15 K, m1 = 0.01012	0.0743
303.15 K, m1 = 0.01148	0.0832
303.15 K, m1 = 0.01208	0.0872
303.15 K, m1 = 0.0126	0.0906
303.15 K, m1 = 0.0131	0.0936
303.15 K, m1 = 0.01373	0.0973
303.15 K, m1 = 0.01442	0.102
303.15 K, m1 = 0.01495	0.105
303.15 K, m1 = 0.01641	0.114
303.15 K, m1 = 0.01705	0.118
303.15 K, m1 = 0.01772	0.121
303.15 K, m1 = 0.01824	0.124
303.15 K, m1 = 0.01885	0.128
303.15 K, m1 = 0.01941	0.131
303.15 K, m1 = 0.01993	0.134
303.15 K, m1 = 0.02055	0.138
303.15 K, m1 = 0.02116	0.142
303.15 K, m1 = 0.02184	0.146
303.15 K, m1 = 0.02259	0.15
303.15 K, m1 = 0.02308	0.153
303.15 K, m1 = 0.0237	0.157
303.15 K, m1 = 0.0247	0.164
303.15 K, m1 = 0.02557	0.168
308.15 K, m1 = 0.000318	0.0029
308.15 K, m1 = 0.000786	0.007
308.15 K, m1 = 0.001299	0.0115
308.15 K, m1 = 0.001909	0.0169
308.15 K, m1 = 0.002425	0.021
308.15 K, m1 = 0.002911	0.0256
308.15 K, m1 = 0.003184	0.0277
308.15 K, m1 = 0.003945	0.035
308.15 K, m1 = 0.004657	0.0404
308.15 K, m1 = 0.005206	0.0449
308.15 K, m1 = 0.005836	0.0493
308.15 K, m1 = 0.006331	0.0529
308.15 K, m1 = 0.006772	0.0563
308.15 K, m1 = 0.007443	0.0629
308.15 K, m1 = 0.008421	0.0711
308.15 K, m1 = 0.008974	0.0763
308.15 K, m1 = 0.009871	0.0832
308.15 K, m1 = 0.01044	0.0864
308.15 K, m1 = 0.01092	0.0897
308.15 K, m1 = 0.01159	0.0936
308.15 K, m1 = 0.01221	0.0982
308.15 K, m1 = 0.01248	0.101
308.15 K, m1 = 0.01314	0.104
308.15 K, m1 = 0.01361	0.108
308.15 K, m1 = 0.01442	0.114
308.15 K, m1 = 0.01492	0.119
308.15 K, m1 = 0.01568	0.125
308.15 K, m1 = 0.0164	0.13
308.15 K, m1 = 0.01694	0.134
308.15 K, m1 = 0.01787	0.14
308.15 K, m1 = 0.01861	0.145
308.15 K, m1 = 0.01941	0.151
308.15 K, m1 = 0.02104	0.162
308.15 K, m1 = 0.02193	0.168
308.15 K, m1 = 0.02283	0.173
308.15 K, m1 = 0.02369	0.178
308.15 K, m1 = 0.02427	0.182
308.15 K, m1 = 0.02502	0.188
308.15 K, m1 = 0.02563	0.192
313.15 K, m1 = 0.000187	0.0015
313.15 K, m1 = 0.000688	0.0067
313.15 K, m1 = 0.001827	0.0169
313.15 K, m1 = 0.002361	0.0217
313.15 K, m1 = 0.002859	0.0266
313.15 K, m1 = 0.003424	0.0322
313.15 K, m1 = 0.00399	0.0371
313.15 K, m1 = 0.004604	0.0421
313.15 K, m1 = 0.005344	0.0499
313.15 K, m1 = 0.005863	0.0548
313.15 K, m1 = 0.006345	0.0593
313.15 K, m1 = 0.006846	0.064
313.15 K, m1 = 0.008054	0.074
313.15 K, m1 = 0.008628	0.079
313.15 K, m1 = 0.009481	0.0864
313.15 K, m1 = 0.009912	0.0907
313.15 K, m1 = 0.01048	0.0955
313.15 K, m1 = 0.01099	0.0999
313.15 K, m1 = 0.01153	0.104
313.15 K, m1 = 0.0121	0.11
313.15 K, m1 = 0.01268	0.114
313.15 K, m1 = 0.01328	0.119
313.15 K, m1 = 0.01388	0.124
313.15 K, m1 = 0.01459	0.13
313.15 K, m1 = 0.01545	0.136
313.15 K, m1 = 0.01599	0.141
313.15 K, m1 = 0.0169	0.148
313.15 K, m1 = 0.01817	0.157
313.15 K, m1 = 0.01879	0.162
313.15 K, m1 = 0.01965	0.169
313.15 K, m1 = 0.02019	0.172
313.15 K, m1 = 0.02082	0.177
313.15 K, m1 = 0.02134	0.18
313.15 K, m1 = 0.02194	0.184
313.15 K, m1 = 0.02255	0.19
313.15 K, m1 = 0.02328	0.195
313.15 K, m1 = 0.02409	0.2
